# Active and inactive are the calls of the source.
# Experiments:
# [1] = molecular target: FAD-linked sulfhydryl oxidase ALR (Homo sapiens, UniProt P55789); assay: ALR-catalysed DTT oxidation blockers – biochemical, H2O2 detection, luminescence, cherry-pick, dose response (AID 493248)
# [2] = molecular target: T1, Calpain-2 catalytic subunit (Sus scrofa, UniProt P43367); assay: m-calpain protease blockers, concentration series – biochemical, fluorogenic peptide substrate, dose response (AID 1420); assay type: functional
# T1 sequence (P43367 whole entry): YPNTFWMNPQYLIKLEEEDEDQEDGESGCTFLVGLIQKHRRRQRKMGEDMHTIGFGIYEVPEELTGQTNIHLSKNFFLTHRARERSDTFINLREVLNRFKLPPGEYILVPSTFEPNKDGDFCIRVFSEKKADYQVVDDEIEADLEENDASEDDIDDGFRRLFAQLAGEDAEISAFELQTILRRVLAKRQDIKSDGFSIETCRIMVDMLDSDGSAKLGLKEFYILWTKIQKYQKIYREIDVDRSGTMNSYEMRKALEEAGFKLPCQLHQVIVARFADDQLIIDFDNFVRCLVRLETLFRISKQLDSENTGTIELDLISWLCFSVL
# INS1 = assay: INS-1E survival protection against cytokine death – cell-based, luminescence, retest, dose response (AID 449756); assay type: functional; conditions: Rattus norvegicus;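 note: cell death triggered by IL-1 beta plus TNF-alpha plus IFN-gamma mixture; protective hits raise ATP signal compared with cytokine alone wells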
# [3] = Trypanosoma cruzi growth suppression in host cells – NIH3T3 host cells, beta-gal luminescence, confirmation (AID 2044); assay type: functional, cell-based;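 note: intracellular parasites grown in NIH/3T3 mouse fibroblasts as host cells; luminescent beta-galactosidase reporter signal from transgenic T. cruzi replicating inside host cells; inhibitors lower the luminescence signal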
# [4] = NIH3T3 cell viability loss – ATP luminescence, mouse fibroblasts, counter-screen, dose response (AID 2010); assay type: functional, cell-based;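 note: cells exposed to compound for about 90 hours before reading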
# Leucine aminopeptidase = molecular target: T2, Leucine aminopeptidase (Plasmodium falciparum 3D7, UniProt Q8IL11); assay: P. falciparum M17LAP inhibitors, primary screen, biochemical, fluorogenic H-Leu-NHMec substrate, 1536-well (AID 1619); assay type: functional
# T2 sequence (Q8IL11 whole entry): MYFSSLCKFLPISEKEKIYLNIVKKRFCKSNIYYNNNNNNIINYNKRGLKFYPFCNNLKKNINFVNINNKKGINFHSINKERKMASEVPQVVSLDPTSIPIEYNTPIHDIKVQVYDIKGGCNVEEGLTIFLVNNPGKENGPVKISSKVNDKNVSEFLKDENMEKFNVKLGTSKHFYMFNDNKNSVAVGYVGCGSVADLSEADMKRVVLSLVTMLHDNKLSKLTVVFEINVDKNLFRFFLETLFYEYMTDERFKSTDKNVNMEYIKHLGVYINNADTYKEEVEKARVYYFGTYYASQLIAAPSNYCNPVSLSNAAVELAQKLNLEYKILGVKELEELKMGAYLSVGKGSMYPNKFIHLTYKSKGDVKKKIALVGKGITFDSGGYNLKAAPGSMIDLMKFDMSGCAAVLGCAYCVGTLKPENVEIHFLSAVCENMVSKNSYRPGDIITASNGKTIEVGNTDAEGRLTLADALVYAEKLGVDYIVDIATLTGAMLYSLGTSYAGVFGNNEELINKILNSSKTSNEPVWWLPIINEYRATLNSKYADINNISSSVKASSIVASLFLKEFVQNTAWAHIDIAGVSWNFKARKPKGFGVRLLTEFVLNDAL
# [5] = molecular target: T3, Polyadenylate-binding protein 1 (Homo sapiens, UniProt P11940); assay: MLLE domain peptide-binding blockers, IC50 – biochemical, fluorescence polarization, FITC-PAM2 peptide, dose response (AID 602259); assay type: functional; conditions: read-out: IC50_Mean
# T3 sequence (P11940 whole entry, the tested form may be a part): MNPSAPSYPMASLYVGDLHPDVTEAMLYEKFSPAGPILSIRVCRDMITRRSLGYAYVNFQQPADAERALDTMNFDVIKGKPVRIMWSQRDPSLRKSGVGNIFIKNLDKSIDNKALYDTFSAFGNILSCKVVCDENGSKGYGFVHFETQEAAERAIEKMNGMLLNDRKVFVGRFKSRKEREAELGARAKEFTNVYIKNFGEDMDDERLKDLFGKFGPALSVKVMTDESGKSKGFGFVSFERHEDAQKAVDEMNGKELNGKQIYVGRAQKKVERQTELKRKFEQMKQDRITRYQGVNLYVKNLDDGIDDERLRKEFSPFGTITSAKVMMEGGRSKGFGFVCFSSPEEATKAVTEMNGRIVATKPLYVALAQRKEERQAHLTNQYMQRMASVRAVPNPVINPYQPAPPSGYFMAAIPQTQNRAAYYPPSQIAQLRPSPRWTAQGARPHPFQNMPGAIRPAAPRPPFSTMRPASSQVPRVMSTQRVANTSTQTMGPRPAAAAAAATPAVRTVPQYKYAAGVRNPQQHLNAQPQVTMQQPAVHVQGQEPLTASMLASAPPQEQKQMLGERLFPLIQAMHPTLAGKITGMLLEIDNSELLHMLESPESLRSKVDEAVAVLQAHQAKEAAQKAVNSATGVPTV
# [6] = molecular target: T3, Polyadenylate-binding protein 1; assay: MLLE binding blockers, Cy5 peptide tracer – biochemical, fluorescence polarization, Cy5-PAM2 peptide, secondary, miRNA deadenylation inhibitor project, dose response (AID 602260); assay type: functional; conditions: read-out: IC50_Mean
# H9c2 = assay: cells; assay type: functional, cell-based; conditions: Rattus norvegicus, H9c2, Myocardium;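 note: confirmatory concentration-response retest of ultra-high-throughput screening hits for modulation of myocardial damage; cell death induced by hydrogen peroxide oxidative stress; compound pretreatment for 60 min then peroxide exposure for 2 h; potency is for protecting the cells against peroxide damage rather than for killing them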
# [7] = molecular target: T4, Corticotropin-releasing factor receptor 2/Corticotropin-releasing factor-binding protein (Homo sapiens, UniProt P24387+Q13324); assay: activators of CRF receptor 2 with binding protein – uHTS hits, confirmation (AID 602473); assay type: functional; conditions: read-out: EC50_Mean
# T4 sequence (Q13324 whole entry): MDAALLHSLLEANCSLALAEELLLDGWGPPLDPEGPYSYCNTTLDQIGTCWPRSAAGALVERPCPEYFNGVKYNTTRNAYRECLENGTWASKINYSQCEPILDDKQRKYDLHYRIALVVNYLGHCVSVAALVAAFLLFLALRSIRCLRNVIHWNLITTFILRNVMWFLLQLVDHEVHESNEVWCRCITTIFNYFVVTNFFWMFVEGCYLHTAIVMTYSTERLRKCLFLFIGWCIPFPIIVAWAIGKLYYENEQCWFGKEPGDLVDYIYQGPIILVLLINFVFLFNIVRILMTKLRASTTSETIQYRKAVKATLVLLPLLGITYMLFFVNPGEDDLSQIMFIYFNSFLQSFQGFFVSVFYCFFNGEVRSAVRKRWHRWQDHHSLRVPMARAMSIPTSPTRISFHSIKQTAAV
# T4 sequence (P24387 whole entry): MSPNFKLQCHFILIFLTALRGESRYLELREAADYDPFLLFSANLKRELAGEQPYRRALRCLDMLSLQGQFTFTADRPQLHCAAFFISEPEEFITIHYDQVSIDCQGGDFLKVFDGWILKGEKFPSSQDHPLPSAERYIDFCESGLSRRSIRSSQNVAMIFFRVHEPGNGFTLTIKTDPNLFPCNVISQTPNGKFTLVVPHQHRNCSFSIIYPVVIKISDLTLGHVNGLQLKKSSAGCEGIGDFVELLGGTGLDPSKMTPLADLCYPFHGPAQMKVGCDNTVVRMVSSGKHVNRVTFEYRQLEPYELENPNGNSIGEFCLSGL
# [8] = molecular target: T4, Corticotropin-releasing factor receptor 2/Corticotropin-releasing factor-binding protein; assay: Dose Response confirmation of uHTS hits for small molecule antagonists of the CRF-binding protein and CRF-R2 receptor complex.; assay type: functional; conditions: read-out: IC50_Mean
# [9] = microbe, parasite or virus in culture; assay type: functional; conditions: Mycobacterium tuberculosis
# Sequence of FAD-linked sulfhydryl oxidase ALR (P55789 whole entry): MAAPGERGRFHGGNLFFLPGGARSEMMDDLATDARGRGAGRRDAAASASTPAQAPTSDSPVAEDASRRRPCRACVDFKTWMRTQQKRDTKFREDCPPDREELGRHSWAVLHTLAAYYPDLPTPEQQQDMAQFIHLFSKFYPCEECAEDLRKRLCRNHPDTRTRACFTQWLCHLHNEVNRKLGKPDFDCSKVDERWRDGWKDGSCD
compound,measurement,setting,value
CN(C)c1ccc(/C=N/NC(=O)c2ccccn2)cc1,AC50,[1],35.5 µM (active)
CCCCN(CC)CCNC(=O)CNC(=O)Cn1ccc2ccccc2c1=O,IC50,[2],46.5 µM (not active)
CCn1c(-c2ccc(N(C)C)cc2)nc2ccccc21,AC50,[1],1.48 µM (active)
same,AC50,INS1,4.25 µM (active)
same,EC50,[3],1.67 µM (active)
same,EC50,[4],> 60 µM (not active)
CCOc1ccc(Nc2nc(Cc3nnc(SCC(=O)O)o3)cs2)cc1,IC50,Leucine aminopeptidase,7.08 µM (active)
CCO/C(O)=C1/Sc2cc(C)ccc2N=C1C,IC50,[5],> 66 µM (inactive)
same,IC50,[6],> 66 µM (inactive)
Cc1cccc(NC(=O)c2oc3ccc(S(=O)(=O)N4CCOCC4)cc3c2C)c1C,IC50,H9c2,> 79 µM (inactive)
CC(OC(=O)Cc1nnc(O)c2ccccc12)C(=O)Nc1ccc(F)cc1 (configuration not stated),IC50,H9c2,> 79 µM (inactive)
O=C(CCl)Nc1nccs1,EC50,[7],> 53 µM (inactive)
same,IC50,[8],> 47.1 µM (inactive)
same,CC50,[9],13.7 µM (active)
Cc1sc(NC(=O)C2CC=CCC2C(=O)O)c(C(=O)OC(C)C)c1C (configuration not stated),IC50,Leucine aminopeptidase,24.1 µM (active)
CC(C)NC(=S)N/N=C/C1=CCC2CC1C2(C)C (configuration not stated),IC50,[2],49 µM (not active)
Cc1ncsc1CCC(=O)N1CCCC(Nc2ccc(C(C)C)cc2)C1 (configuration not stated),AC50,[1],3.68 µM (active)
CC(C)c1ccc(NC2CCCN(C(=O)c3cc(C(C)C)nc(N)n3)C2)cc1 (configuration not stated),AC50,[1],0.714 µM (active)
O=C(CCc1nc(O)c2ccccc2n1)N1CCN(c2ccccc2Cl)CC1,IC50,H9c2,> 79 µM (inactive)
Cc1cc(NS(=O)(=O)c2ccc(NC(=S)NC(=O)c3ccc(F)cc3)cc2)no1,IC50,[5],> 66 µM (inactive)
same,IC50,[6],> 66 µM (inactive)
Cc1c(O)c([S+]([O-])c2ccccc2)c(=O)n(-c2ccccc2)c1-c1ccccc1 (configuration not stated),IC50,Leucine aminopeptidase,15.1 µM (active)
CCOC(=O)COc1ccc2c3c(c(=O)oc2c1)CCCC3,IC50,H9c2,31.2 µM (inactive)
CCSc1nnc(-c2ccccc2/N=C/c2c(C)nn(-c3ccccc3)c2O)c(O)n1,IC50,Leucine aminopeptidase,39.6 µM (active)
O=C1C=C(NNC(=O)c2cccnc2)CC(c2ccco2)C1 (configuration not stated),IC50,[5],> 66 µM (inactive)
same,IC50,[6],> 66 µM (inactive)
COc1ccc(OC)c(C2C(C#N)=C(N)Oc3cc(N)ccc32)c1 (configuration not stated),AC50,[1],3.1 µM (active)

# Source: ChEMBL document CHEMBL1201862, “PubChem BioAssay data set” (2004)
